From patent US11155576B2, “Synthetic peptides, enzymatic formation of pericellular hydrogels/nanofibrils, and methods of use” (BRANDEIS UNIVERSITY, priority 2014, dated 2021)

Columns and labels:
[1] = test system: HeLa cells; experiment: Cell adhesion assay; assay type: cell-based, human; conditions: 560 μM, trypsinized HeLa cells, at 4 hours
Description: Cells in exponential growth phase were detached using 0.25% trypsin-EDTA. After neutralizing trypsin by addition of complete culture medium, the cells were collected by centrifuge (1000 rpm, 3 min). The cell pellet was suspended by addition of culture medium to a concentration of 4×10^5 cells/mL. 1 mL of the cell suspension was mixed with 1 mL of 2×D-2a or D-2b containing culture media. The resulting solutions were added into 96 well plate at 100 μL/well. After the desired time of incubation at 37° C., 5% CO2, the solution was gently removed, and then 100 μL of culture medium and 10 μL of 5 mg/mL MTT were added to each well. Following 4 hour incubation in the dark, 100 μL of 10% SDS with 0.01M HCl was added to each well to stop the reduction reaction and to dissolve the purple. After incubation of the cells at 37° C. for overnight, the viability was measured. Data represent the mean±standard deviation of three independent experiments.

[2] = test system: MES-SA/Dx5 cells; experiment: MES-SA/Dx5 tumor model in nude mice; assay type: in vivo; conditions: subcutaneous and peritumoral, 800 μg dose (~32 mg/kg), 6 times every 3 days
Description: Nine nude mice were used for experiments to define the tumor growth curve. 1×10^7 MES-SA/Dx5 cells were implanted into the mice via […] using a 25 G needle. Three of the tumor-bearing mice were used to define the tumor growth curve with control treatment, and six mice were given D-2a. The mice were injected subcutaneously and peritumorally (6 times, every 3 days starting at Day 1) with either 100 μL of D-2a at 8 μg/μL (800 μg dose or ˜32 mg/kg) in PBS buffer (experimental) or 100 μL of PBS buffer (control). Tumor volume measurements were made every three days, also starting on Day 1. Volume of tumors was measured by caliper.

[3] = test system: MES-SA cells; experiment: Pericellular hydrogel/nanonets on MES-SA cells (Congo red/DAPI); assay type: cell-based; conditions: 280 μM, 12 hours
Description: FIG. 11 illustrates overlaid and 3D stacked z-scan images of Congo red and DAPI stained MES-SA and MES-SA/Dx5 cells treated with either 280 μM D-2a (upper panel) or medium alone (control, lower panel) for 12 hours. Scale bar=[…]. White dots outline the cells.
Cells in exponential growth phase were seeded in a glass bottomed culture chamber at 2×10^4 cells/well. Cells were allowed to attach for 24 hours at 37° C., 5% CO2. The culture medium was removed, and replaced with culture medium containing D-2a at 280 μM. Following 12 hours of incubation, cells were washed 3 times with PBS prior to being stained with 0.1 mg/mL Congo red and 0.6 μM DAPI in PBS buffer (30 minutes at 37° C. in the dark). Next, cells were rinsed three times with PBS, and then kept in PBS for imaging.

[4] = test system: active Caspase 3; experiment: Apoptosis pathway assay (ELISA), active Caspase 3; assay type: cell-based, human; conditions: HeLa cells, 280 μM, at 24 and 32 hours of incubation
Description: The apoptosis pathway was evaluated using the PathScan® Apoptosis Multi-Target Sandwich ELISA Kit (Cell Signaling Technology) following the supplied protocol. Cells in exponential growth phase were seeded in a 6 cm Petri dish at a concentration of 10×10^5 cells/dish (5 dishes). Cells were allowed to attach to the wells for 24 hours at 37° C., 5% CO2. The culture medium was removed and 5 mL medium containing 280 μM D-2a (immediately diluted from fresh prepared stock solution of 11.2 mM) was placed into each dish. At 0, 6, 12, 24, or 32 hours, the medium was removed and cells were washed three times with cold PBS buffer. 0.9 mL lysis buffer was used to lyse cells in each dish, and 0.9 mL of diluents buffer was used to dilute each of the cell lysate. The lysate was incubated in the provided 96 well plate at 4° C. for 24 hours.
ELISA was used to quantify the amount of several key apoptosis signal molecules over time in the HeLa cells incubated with 280 μM D-2a (FIG. 3E).

[5] = test system: Ect1/E6E7 cells; experiment: Pericellular hydrogelation on Ect1/E6E7 cells; assay type: cell-based, human; conditions: 560 μM, prolonged incubation time of 48 hours
Description: An 11.2 mM (8.09 mg/mL) stock solution of D-2a was prepared in ddH2O. The pH was adjusted to 7.4 using 1N NaOH. 2×10^5 cells in exponential growth phase were seeded in 35 mm Petri dish with 1 mL complete culture medium. Following overnight incubation, the medium was replaced with 1 mL of medium containing D-2a (diluted from the stock solution immediately prior to use). Petri dishes were incubated at 37° C. for two hours. Next, dishes were removed from the incubator and titled on a bench to visualize the pericellular hydrogel. Prior to co-incubation with phosphatase inhibitors, cells were washed three times with medium containing Pierce phosphatase inhibitor cocktail (Thermo) (contains sodium floride, sodium orthovanadate, sodium pyrophosphate, and beta-glycerophosphate). Next, 1 mL of medium containing both the inhibitor cocktail and D-2a was applied to the cells.
Ect1/E6E7 cells (immortalized normal human cervical epithelial cells, which have same tissue and organ origins as HeLa cells) were treated with the same procedure as described for HeLa cells above. […] The difference of hydrogel/nanonets formation by D-2a conversion to D-2b on HeLa cells and Ect1/E6E7 cells agrees with the notion that HeLa cells have higher levels of phosphatase activity than Ect1/E6E7 cells (FIG. 9).

[6] = Cell viability assay (MTT), Ect1/E6E7; assay type: cell-based; conditions: human, Ect1/E6E7 cells, read-out: Cells remaining viable
Description: Cells in exponential growth phase were seeded in a 96 well plate at a concentration of 2×10^4 cells/well. The cells were allowed to attach to the wells for 24 hours at 37° C., 5% CO2. The culture medium was removed and 100 μL culture medium containing compounds (immediately diluted from fresh prepared stock solution of 10 mM) at gradient concentrations (0 μM as the control) was placed into each well. After culturing at 37° C., 5% CO2 for 48 hours, each well was added by 10 μL of 5 mg/mL MTT (3-(4,5-dimethylthiazoL-2-yl)-2,5-diphenyltetrazolium bromide), and the plated cells were incubated in the dark for 4 hours. 100 μL 10% SDS with 0.01M HCl was added to each well to stop the reduction reaction and to dissolve the purple. After overnight incubation of the cells at 37° C., the OD at 595 nm of the solution was measured in a microplate reader. Data represent the mean±standard deviation of three independent experiments.

In the case of O=C(Cc1ccc2ccccc2c1)N[C@H](Cc1ccccc1)C(=O)N[C@H](Cc1ccccc1)C(=O)N[C@H](Cc1ccc(OP(=O)(O)O)cc1)C(=O)O [D-2a, Nap-D-Phe-D-Phe-D-Tyr(PO3H2)], the “Cells reattached to surface” value [1] is reported as “less than 5%”, the “Day by which statistically significant differences between experimental and control groups were observed” value [2] is reported as ≤ 13 days and the “Relative tumor volume / tumor growth” value [2] is reported as “inhibited tumor growth”. For the same compound, the Pericellular hydrogel/nanonets formation [3] was “forms pericellular hydrogel/nanonets”, the “Amount of active Caspase 3” value [4] was “increase significantly” and the “Hydrogel formation on Ect1/E6E7 cells” value [5] was “hydrogels hardly form”. For the same compound, the viability at 48 h, 280 µM [6] was > 60%.
